Assays:
[1] = system: PDE4A-expressing U87 cells; test: Viable cell number, PDE4A-expressing U87 cells; format: cell-based, human; settings: CXCL12 1 μg/ml, AMD 3465 2.5 μg/ml, Rolipram 200 μM
Experimental: (§1) PDE4A expression. U87 and Daoy cells (15,000 cells) were transiently transfected for 48 h with a plasmid encoding a transgene for the tet-off transactivator (tTA) alone (kind gift from Dr. Louis Muglia, Washington University School of Medicine, St. Louis, Mo.), a plasmid containing a transgene for tet-off regulated expression of phosphodiesterase 4A (PDE4A) alone (kind gift from Dr. James Cherry, Boston University, Boston, Mass.), or a combination of both plasmids, using lipofectamine (Invitrogen) according to the manufacturer's instructions. Plasmid DNA (2 μg) was mixed with lipofectamine (5 μl) per 35 mm^2 dish. Transfection proceeded for 9 hours prior to exchanging transfection media for αMEM supplemented with 10% FCS.

Daoy xenografts [2] = test: cAMP in xenograft tumor tissue by ELISA; format: in vivo, mouse; settings: same treatment paradigms as growth studies, EGFP-luciferase xenografts
Experimental: cAMP measurement in tumor tissue. EGFP-expressing tumor tissue was removed under direct fluorescence microscopy and frozen in liquid nitrogen. Frozen tissue was weighed and homogenized with 10 volumes of 10% ice-cold trichloroacetic acid, then centrifuged for 10 min at 4000 rpm to remove precipitate. The supernatant was washed three times with 8 volumes of water-saturated ether. The aqueous phase was dried down and resuspended in cAMP assay buffer.
(§2) Determination of cAMP concentration. Competitive immunoassay for cAMP concentration was performed exactly as directed by the manufacturer. Absorbance at 405 nm was measured and cAMP concentrations were determined by calculation based on a standard curve. Protein concentrations were measured by colormetric assay (Bio-Rad, Hercules, Calif.) according to the manufacturer's directions. cAMP values were normalized to protein for each sample individually.
To ascertain whether the in vivo anti-tumor effects of Rolipram and AMD 3465 were correlated with increases in intratumoral cAMP, we repeated the treatment paradigms with Daoy xenografts that had been engineered to express both enhanced green fluorescent protein (EGFP) and firefly luciferase. […] Tumor tissue was easily visualized in situ under direct fluorescence microscopy (FIG. 20A). Cyclic AMP was extracted from GFP positive tissue, and cAMP levels were measured by ELISA.

U87 GBM xenografts = test: Intracranial U87 xenograft growth by bioluminescence imaging; format: in vivo, mouse
U87 glioblastoma cells [3] = test: Viable cell number by trypan blue exclusion, U87 cells; format: cell-based, human; settings: Rolipram 200 μM, AMD 3465 2.5 μg/ml; for effect on CXCL12 induced growth: with CXCL12 1 μg/ml, Forskolin 10 μM
Experimental: (§3) Brain tumor cell cultures. Cells were cultured in αMEM (Invitrogen, Carlsbad, Calif.) supplemented with 10% FCS (Biomedia, Foster City, Calif.) in the presence of penicillin streptomycin at 37° C. with 5% CO2.
(§4) Growth factor and drug treatment. Following serum-starvation for 24 hours, astrocytes, granule cells, U87 cells and Daoy cells, were treated with 1 μg/ml CXCL12 (PeproTech), […] AMD3465 (kind gift from Simon Fricker, AnorMED, Langley, BC, Canada) (200 μM Rolipram (Sigma), or 10 μM Forskolin (Sigma) as indicated.

CXCR4 = CXCR4 (Homo sapiens, UniProt P61073); settings: compared with AMD 3100, reference (84); cited from earlier work
Daoy xenografts [4] = test: Intracranial Daoy xenograft growth by bioluminescence imaging; format: in vivo, mouse
U87 glioblastoma cells [5] = test: Intracellular cAMP by ELISA, U87 glioblastoma cells; format: cell-based, human
Experimental: as §4
(§5) cAMP measurement in cell culture. cAMP concentration was measured using a Correlated-EIA™. Enzyme Immunoassay Kit (Assay Designs Inc. MI) according to the manufacturer's instructions. Briefly, U87 or Daoy cells were serum-starved for 24 hours, and treated with CXCL12 (1 μg/ml), Rolipram (200 μM), or forskolin (10 μM). Cells were lysed in 0.1M HCL and particulate matter was removed by centrifugation at >600×g for 10 min. The supernatants were dried down and resuspended in assay buffer.
as §2

[6] = system: Daoy medulloblastoma cells; test: Intracellular cAMP by ELISA, Daoy medulloblastoma cells; format: cell-based, human
Experimental: as §4, §5, §2

[7] = system: PDE4A-expressing Daoy cells; test: Viable cell number, PDE4A-expressing Daoy cells; format: cell-based, human; settings: CXCL12 1 μg/ml, AMD 3465 2.5 μg/ml, Rolipram 200 μM
Experimental: as §1

[8] = system: Daoy medulloblastoma cells; test: Viable cell number by trypan blue exclusion, Daoy cells; format: cell-based, human; settings: Rolipram 200 μM, AMD 3465 2.5 μg/ml; for effect on CXCL12 induced growth: with CXCL12 1 μg/ml, Forskolin 10 μM
Experimental: as §3, §4

[9] = added to chemotherapy and radiation therapy; decreased consciousness and increased seizure activity; reference (109); cited from earlier work
[10] = Tolerability in xenograft-bearing mice; format: in vivo, mouse; settings: 5 μg/g/day in the drinking water
[11] = in vivo; cited from earlier work
[12] = continuous subcutaneous infusion 50 μg/day (2.5 mg/kg/day) for 5 weeks
[13] = AMD 3465 2.5 μg/ml coadministered with CXCL12 1 μg/ml
[14] = 5 μg/g/day in the drinking water, from two weeks after tumor cell injection
[15] = Rolipram 200 μM or Forskolin 10 μM, not abrogated by CXCL12

Chain of CXCR4 (P61073 whole entry, species assumed): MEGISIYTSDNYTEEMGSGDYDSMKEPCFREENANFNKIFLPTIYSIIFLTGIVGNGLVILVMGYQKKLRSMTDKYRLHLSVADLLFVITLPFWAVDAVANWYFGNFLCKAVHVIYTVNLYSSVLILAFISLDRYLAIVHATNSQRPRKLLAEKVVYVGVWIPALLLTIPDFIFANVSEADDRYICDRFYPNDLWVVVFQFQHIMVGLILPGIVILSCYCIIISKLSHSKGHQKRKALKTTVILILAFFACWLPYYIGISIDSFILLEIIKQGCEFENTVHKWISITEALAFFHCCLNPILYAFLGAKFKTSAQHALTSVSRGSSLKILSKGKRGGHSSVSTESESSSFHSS

c1ccc(CNCc2ccc(CN3CCCNCCNCCCNCC3)cc2)nc1 [AMD 3465]
effect on cell number [1]: no effect
amount of cAMP within tumor tissue (Daoy xenografts [2]): significant increase
inhibition of xenograft growth as compared to controls (U87 GBM xenografts; [12]): 80%
effect on cell number alone (U87 glioblastoma cells [3]): no significant effect
effect on CXCL12 induced growth (U87 glioblastoma cells [3]): completely blocked
affinity for CXCR4 (CXCR4): greater affinity
inhibition of xenograft growth as compared to controls (Daoy xenografts [4]; [12]): 85%
effect on cAMP levels alone (U87 glioblastoma cells [5]; AMD 3465 2.5 μg/ml): little to no effect
CXCL12-induced suppression of cAMP (U87 glioblastoma cells [5]; [13]): blocked
effect on cAMP levels alone ([6]; AMD 3465 2.5 μg/ml): little to no effect
CXCL12-induced suppression of cAMP [6, 13]: blocked
effect on cell number [7]: no effect
effect on cell number alone [8]: no significant effect
effect on CXCL12 induced growth [8]: completely blocked

CC(=O)CCCCn1c(=O)c2c(ncn2C)n(C)c1=O [Pentoxiphyllin]
toxicity [9]: excessive toxicity

COc1ccc(C2CNC(=O)C2)cc1OC1CCCC1 (centres unmarked) [Rolipram]
effect on cell number [1]: growth inhibitory effect
amount of cAMP within tumor tissue (Daoy xenografts [2]): significant increase
inhibition of xenograft growth (U87 GBM xenografts; [14]): 96%
effect on cell number alone (U87 glioblastoma cells [3]): little to no effect
effect on CXCL12 induced growth (U87 glioblastoma cells [3]): completely blocked
animal weights compared to the control group ([10]; data not shown): better maintained
appearance of treated animals ([10]; throughout the treatment period): appeared well
inhibition of xenograft growth (Daoy xenografts [4]; [14]): 58%
change in intracellular cAMP (U87 glioblastoma cells [5]; [15]): predictable increases
change in intracellular cAMP [6, 15]: predictable increases
blood brain barrier passage [11]: crosses an intact blood brain barrier
effect on cell number [7]: growth inhibitory effect
effect on cell number alone [8]: little to no effect
effect on CXCL12 induced growth [8]: completely blocked

Reference: patent publication US7892767B2, “Phosphospecific chemokine receptor antibodies” (Washington University in St. Louis, priority 2005, dated 2011)
